Measurements published in publication PMC12705620 (Frontiers in Pharmacology, 2025).

How the values were obtained:
[1] = test system: human erythrocytes; assay: Hemolytic activity; type: cell-based; conditions: 1% human erythrocytes in PBS, 45 min, 37 °C, absorbance 540 nm, 30% lysis threshold, peptides up to 60 µM, triplicate, single donor
Description: Whole blood was collected from healthy volunteers after obtaining informed consent, using Vacuette EDTA tubes (Greiner Bio-One). […] For hemolytic assessment, 180 μL of the prepared erythrocyte suspension was mixed with 20 μL of serially diluted peptide solutions (ranging from 60 to 0.03 μM in PBS).

[2] = test system: S. aureus JAR060131; assay: Bactericidal (time-kill) kinetics; type: cell-based, Staphylococcus aureus; conditions: 3.75 µM peptide, 1 × 10^6 CFU/mL
Description: (§1) Time-kill kinetics were evaluated against S. aureus JAR060131 and A. baumannii RUH875. Mid-logarithmic phase bacterial cultures were diluted to a final concentration of 1 × 10^6 CFU/mL in PBS. Bacteria were incubated with 0.5-, 2-, and 4-fold the LC99.9. Assays were conducted in polypropylene tubes (Micronics) with a total volume of 500 µL. Control samples consisted of bacteria incubated in PBS alone. At 1, 5, 30, and 120 min, 50 µL samples were collected and immediately added to 50 µL of 0.05% (v/v) sodium polyanethol sulfonate (SPS; Sigma-Aldrich) in PBS to neutralize residual peptide activity ([Dankert et al., 1995]). Viable bacterial counts were determined by plating 10 µL of serial 10-fold dilutions onto BA plates. Colonies were counted after 24 h of incubation at 37 °C. All conditions were performed in triplicate.

[3] = test system: A. baumannii RUH875; assay: Bactericidal (time-kill) kinetics; type: cell-based, Acinetobacter baumannii; conditions: within 1 min at 3.75 µM
Description: as §1

[4] = test system: HaCaT human keratinocytes; assay: Cytotoxicity (WST-1 and LDH); type: cell-based; conditions: 24 h exposure, triplicate
Description: (§2) Cells (5 × 10^5 cells/mL) were seeded in 96-well plates (100 μL/well; Thermo Scientific) and allowed to adhere for 24 h. After adhesion, monolayers were exposed to two-fold serial dilutions of the tetrameric and reference peptides (final concentrations: 60–0.05 µM) in fresh DMEM containing 2% (v/v) FBS, and incubated for 24 h at 37 °C in a humidified 5% CO2 atmosphere. Cell viability was assessed using the water-soluble tetrazolium salt (WST-1; Roche) assay, and membrane integrity was measured using the lactate dehydrogenase (LDH) release assay (Abcam), following manufacturer instructions. Absorbance was measured using the Synergy H1 microplate reader (Biotek). Results are expressed as percentages relative to untreated control (for WST-1) and positive lysis control (for LDH) and all experiments were performed in triplicate.

[5] = test system: human skin fibroblast cells (BJ); assay: Cytotoxicity (WST-1 and LDH); type: cell-based; conditions: 24 h exposure, triplicate
Description: as §2

[6] = test system: human keratinocytes and dermal fibroblasts; assay: Cytotoxicity summary over human skin cells; type: cell-based; conditions: 24 h
Description: as §2

[7] = test system: S. aureus LUH14616 (MRSA); assay: Ex vivo human skin wound infection model; parameters: species or system Staphylococcus aureus; conditions: 200 µM topical, 4 h treatment, versus untreated control (Figure 4C), p < 0.001
Excerpt: Human skin from 3 donors was obtained via the Residual Tissue Biobank of the Red Cross Hospital (Beverwijk, Netherlands). The use of these coded, post-operative residual tissue samples was approved by patients through the informed opt-out-plus protocol of the Red Cross Hospital Skin ([Code-of-Conduct-for-Health-Research, 2022]) and processed for an ex vivo wound infection model as described ([Dijksteel et al., 2020]). The Wounded skin grafts were sectioned into approximately 1 cm^2 samples using a sterile scalpel and were decontaminated by immersion in 70% ethanol for 30 min, followed by three PBS washes. Samples were placed dermis-down and wound-side-up on stainless steel grids with central indentations, positioned in 12-well plates, and cultured at the air–liquid interface in DMEM at 37 °C and 5% CO2. To confine reagents to the wound area, a resin barrier (OpalDam; Ultradent) was applied to the wounded area and polymerized using a hand-held UV light (Valo X) for 10 s. The wounds were then topically infected with 10 µL of S. aureus LUH14616 suspension of 1 × 10^7 CFU/mL (final dose: 1 × 10^5 CFU/graft) in PBS for 1 h, followed by topical application of 10 µL of peptide solution for 4 h. Chlorhexidine (0.5% (v/v) in 70% ethanol; Entick B.V.) and PBS were used as positive and negative controls, respectively. After treatment, tissue samples were transferred to polypropylene vials containing 1 mL PBS supplemented with 0.025% (v/v) SPS and a 7 mm stainless steel bead. Homogenization was performed using a MagnaLyser System (Roche) with three 30-s cycles at 7,000 rpm, with 30 s of cooling on ice between cycles. Homogenates were 10-fold serially diluted in PBS, and 100 µL aliquots were plated on BA plates. CFUs were enumerated after overnight incubation at 37 °C.

[8] = DMEM 2% FBS, concentration causing >30% membrane permeation
[9] = WST-1, concentration causing <70% metabolic activity

## Ac-LKRVWKRVFKLLKRYWRQLKKPVR-NH2 (N-terminus and C-terminus assumed) [SAAP-148, reference compound]
[1]
  Hemolytic concentration (HC) < 30%: 0.47 µM
[2]
  Time to complete killing: ≤ 5 min
[3]
  Log reduction in CFU: > 3 log
[4]; [8]
  Cytotoxicity, LDH leakage: 3.75 µM
[4]; [9]
  Cytotoxicity, Metabolic activity: 3.75 µM
[5]; [8]
  Cytotoxicity, LDH leakage: 1.88 µM
[5]; [9]
  Cytotoxicity, Metabolic activity: 3.75 µM
[6]
  Cytotoxic thresholds, WST-1 and LDH: 1.88 to 3.75 µM
[7]
  Reduction of bacterial load (CFU counts): significantly reduced bacterial load
